Tests used:
[1] = tested on: mice; conditions: cited from earlier work
[2] = tested on: rats; conditions: cited from earlier work
[3] = tested on: pigs fed P-adequate corn-soybean meal basal diet; assay: Expt 2: metatarsal and femur breaking strength, three-point bending test; type: in vivo, pig; conditions: main effect, phytase 2,000 U/kg or Sr 50 mg/kg
Procedure: Third and 4th metatarsals in both experiments and femur (right leg) in Experiment 2 were prepared by manually removing surrounding skin, muscle and other tissues. Bones were stored in closed plastic bags at 4° C. until strength analysis. Maximal breaking load was measured using an Instron 4500 Machine (Canton, Mass.) at room temperature (23° C.) by subjecting each bone to a three-point bending test^(28). During mechanical tests, force was applied to the center of the bone held by supports 2.0 cm apart for metatarsals and 3.3 cm apart for femur. The crosshead speed was set at 50 mm/min and the sample rate was 10 points/s. Final strength was determined from load-displacement curves indicating the maximum loads. The metatarsal breaking strength was expressed as the mean strength of four bones from both left and right feet of pigs in Experiment 1, and as the mean of the two bones from the right foot of pigs in Experiment 2.

[4] = tested on: pigs fed P-adequate corn-soybean meal basal diet; assay: Expt 2: femur geometrical and strength properties; type: in vivo, pig; conditions: phytase 2000 U/kg and/or Sr 50 mg/kg, n=6
Procedure: A three-point bending test was conducted on the dissected bones to generate load-deformation curves with an Instron Model 5566 (Norwood, Mass.). Mechanical properties of bones were calculated using formula as previously described^(29). Bone cross sections were cut at the mid-point of loading and used to determine area moment of inertia. Cross sections were submersed for 5 min in a 0.4 mol/L sodium hypochlorite solution to remove periosteum and marrow tissue, and then embedded in blue clay (Play-Doh, Hasbro, Pawtucket, R.I.) to prevent depth-of-field distortions and to enhance contrasts. The embedded sections were scanned with a flat-bed scanner (Epson Perfection Model 3490, Long Beach, Calif.) and analyzed using Image J software (30) to measure the x-y coordinates of bone pixels.

[5] = tested on: pigs fed P-adequate corn-soybean meal basal diet; assay: Expt 2: BMC, BMD and bone area by dual energy X-ray absorptiometry; type: in vivo, pig; conditions: main effect, phytase 2,000 U/kg or Sr 50 mg/kg
Procedure: In Experiment 2, bone mineral content (BMC, g) and bone mineral density (BMD, g/cm^2) of 3rd and 4th metatarsals from the left foot and femur from the left leg of each pig were measured. After being thawed to room temperature, entire bones were placed on a rice bag (to remove background effects) and scanned by dual energy X-ray absorptiometry using the GE Lunar Prodigy instrument (GE Lunar, Prodigy, Madison Wis.) in the small animal scan mode. Values of BMC and BMD were predicted by analysis of scans using Prodigy software (version 10.10.038).

[6] = tested on: pigs fed P-adequate corn-soybean meal basal diet; assay: Expt 2: metatarsal and femur mineral concentrations (ICP); type: in vivo, pig
Procedure: After the breaking strength analysis, samples (˜100 to 200 mg) of metatarsals in both experiments and femur in Experiment 2 from the right legs were used for mineral analysis. Cortical bones were isolated after removing attached connective tissue using a stainless steel scalpel and collecting individual shards using needle-nosed pliers with plastic-covered clamps. […] Concentrations of individual elements in the dried bone samples were measured using inductively coupled argon plasma spectrophotometer (ICAP 61E Trace Analyzer, Thermo Jarell Ash corporation, Franklin, Mass.)(31). Samples were digested in a mixture of HNO3 and HClO4 (9:1, vol/vol), and then diluted in 5% HNO3 before analysis.

[7] = main effect of Sr 50 mg/kg, P<0.0001
[8] = phytase 2000 U/kg and/or Sr 50 mg/kg, n=6

In the case of [Cl-].[Cl-].[Sr+2] [strontium chloride], the LD50 [1] is listed as 147.6 mg/kg body weight.

For strontium acetate, the LD50 [2] is given as 1.16 mmol/kg.

In the case of [I-].[I-].[Sr+2] [strontium iodide], the LD50 [2] is given as 800 mg/kg body weight.

In the case of [Br-].[Br-].[Sr+2] [strontium bromide], the LD50 [2] is given as 1 g/kg body weight.

For O=C([O-])[O-].[Sr+2] [Sr, SrCO3], the “improvement in breaking strength of femur” value [3] was 10%, the “improvement in breaking strength of metatarsals” value [3] was 11% and the “femur Cross-sectional area” value [4] was 151 mm^2. The “femur Cross-sectional radius” value [4] was 9.0 mm, the “femur Maximum bending moment” value [4] was 2286 kg × mm and the “femur Maximum stress” value [4] was 4.3 kg/mm^2. For the same compound, the “femur Modulus of elasticity” value [4] was 50 kg/mm^2, the “femur Moment of inertia” value [4] was 4891 mm^4 and the “femur Strain” value [4] was 0.05. The “femur Yield bending moment” value [4] was 1384 kg-mm, the “femur Yield stress” value [4] was 2.6 kg/mm^2 and the “elevation of BMD of the two bones (metatarsal, femur)” value [5] was 6%. The “enhancement of BMC in both bones (metatarsal, femur)” value [5] was 6 to 8%, the “elevation of metatarsal concentration of Sr” value [6, 7] was 4 fold and the “enhancement of femur concentration of Sr” value [6, 7] was 3.9 fold. The “femur Cr concentration” value [6, 8] was 7.0 mg/kg, the “femur Fe concentration” value [6, 8] was 6.9 mg/kg and the “femur Mg concentration” value [6, 8] was 5.4 g/kg. The “femur Mn concentration” value [6, 8] was 0.6 mg/kg, the “femur Na concentration” value [6, 8] was 8.0 g/kg and the “femur P concentration” value [6, 8] was 176.3 g/kg. The “femur S concentration” value [6, 8] was 1.1 g/kg, the “femur Sr concentration” value [6, 8] was 418.9 mg/kg and the “femur Zn concentration” value [6, 8] was 209.6 mg/kg. The “metatarsal Cr concentration” value [6, 8] was 26.6 mg/kg, the “metatarsal Fe concentration” value [6, 8] was 23.5 mg/kg and the “metatarsal Mg concentration” value [6, 8] was 3.5 g/kg. The “metatarsal Mn concentration” value [6, 8] was 2.8 mg/kg, the “metatarsal Na concentration” value [6, 8] was 6.8 g/kg and the “metatarsal P concentration” value [6, 8] was 88.1 g/kg. For the same compound, the “metatarsal S concentration” value [6, 8] was 1.0 g/kg, the “metatarsal Sr concentration” value [6, 8] was 330.6 mg/kg and the “metatarsal Zn concentration” value [6, 8] was 146.8 mg/kg.
